Measured values reported in paper PMC2569088, “Hydroxylated Metabolites of the Polybrominated Diphenyl Ether Mixture DE-71 Are Weak Estrogen Receptor-α Ligands” (Environmental Health Perspectives, 2008).
Read-outs that look alike come from different tables or passages of the source.

What was measured:
recombinant ER-α = biological target: T1, recombinant ER-α (Homo sapiens, UniProt P03372); assay: Recombinant ER-α binding assay (3H-E2 displacement)
T1 construct: purchased Panvera/Invitrogen, Madison, WI
T1 sequence (P03372 1-595): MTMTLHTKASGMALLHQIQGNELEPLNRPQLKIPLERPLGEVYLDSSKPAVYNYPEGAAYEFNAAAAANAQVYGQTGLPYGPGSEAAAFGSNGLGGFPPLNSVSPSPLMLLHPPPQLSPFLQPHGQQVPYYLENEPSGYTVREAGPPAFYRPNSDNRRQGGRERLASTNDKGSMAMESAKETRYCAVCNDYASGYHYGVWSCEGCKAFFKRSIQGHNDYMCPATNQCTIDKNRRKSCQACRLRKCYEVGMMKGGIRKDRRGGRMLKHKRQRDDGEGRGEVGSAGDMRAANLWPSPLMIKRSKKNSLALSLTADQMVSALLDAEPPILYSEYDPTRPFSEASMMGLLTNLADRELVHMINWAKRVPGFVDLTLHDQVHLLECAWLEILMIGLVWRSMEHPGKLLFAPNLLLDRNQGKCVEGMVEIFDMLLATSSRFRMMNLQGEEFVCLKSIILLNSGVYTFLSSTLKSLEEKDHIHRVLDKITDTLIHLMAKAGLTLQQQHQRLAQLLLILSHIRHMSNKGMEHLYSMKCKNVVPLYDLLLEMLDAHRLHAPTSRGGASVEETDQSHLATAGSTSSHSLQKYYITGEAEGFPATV

[1] = test system: ERE-luciferase (ER-α-positive BG1Luc4E2 cells); assay: ERE-luciferase reporter assay in stably transfected BG1Luc4E2 ovarian cancer cells; format: cell-based, human; conditions: for EC50: determined using the chemical's own maximum effect set at 100%, luciferase 18 hr after addition; for Fold-induction at EC50: normalized to vehicle control (DMSO = 1)
Source text: MDA-MB-231 breast cancer cells ([Cailleau et al. 1978]) obtained from ATCC (American Type Culture Collection; Manassas, VA) and BG1Luc4E2 ovarian cancer cells, a gift from M. Denison (University of California, Davis, CA), were used in estrogen bioassays. BG1LucE2 cells are BG-1 ovarian cancer cells ([Geisinger et al. 1989]) stably transfected with an estrogen-responsive plasmid ([Rogers and Denison 2000]). Most cell culture media and supplements were purchased from Gibco/Invitrogen (Carlsbad, CA), except bovine growth serum (BGS; Hyclone, Logan, UT) and geneticin (G418; Sigma). Most charcoal-stripping reagents and endotoxin-free water were purchased from Sigma-Aldrich (St. Louis, MO) except Dulbecco’s phosphate-buffered saline (DPBS; Mediatech Inc., Herndon, VA). MDA-MB-231 cells were maintained in growth medium (GM): minimum essential media (MEM) supplemented with L-glutamine (2 mM), nonessential amino acids (0.1 mM), HEPES buffer (10 mM), […] insulin, and 5% vol/vol BGS]. BG1Luc4E2 cells were maintained in BG1-GM: alpha-MEM supplemented with HEPES buffer (10 mM), geneticin (0.4 g/L) and 10% vol/vol BGS. Basal medium (BM) for MDA-MB-231 cells consisted of a formulation similar to GM, except that phenol red–free MEM and 3% charcoal-stripped BGS were used. BM for BG1Luc4E2 cells (BG1-BM) consisted of phenol red–free Dulbecco’s modified Eagle media: Nutrient Mixture F12 (DMEM:F12; Gibco/Invitrogen) supplemented with HEPES buffer (10 mM) and 10% vol/vol charcoal-stripped BGS. BGS was stripped of estrogenic activity by methods described previously ([Biswas and Vonderhaar 1987]; [Lippman et al. 1976]).
(§1) We used two ERE-luciferase reporter gene systems: one transiently transfected and the other an established stably transfected cell line. For the transient system, ER-negative MDA-MB-231 breast cancer cells were plated in BM. Two days later cells were transfected using Tfx-20 (Promega, Madison, WI) with expression vectors for ER-α(HEG0; from P. Chambon, Université Louis Pasteur, Illkrich, France), the estrogen-responsive firefly luciferase reporter construct ERE2-pS2-luc ([Long et al. 2001]), and the control Renilla luciferase reporter construct pRL-TK (Promega). Cells were treated with test chemicals 1 hr after transfection, and assayed for luciferase activity after 18 hr. Results are expressed as the ratio of firefly luciferase to Renilla luciferase. For the stable reporter system, ER-positive BG1Luc4E2 ovarian cancer cells ([Rogers and Denison 2000]) were incubated in BG1-BM for 5 days before treatment; cells were then assayed for luciferase activity 18 hr after addition of the test compound.
All statistics were performed using GraphPad Prism, version 3.0a, for Macintosh (GraphPad Software, San Diego CA). For each analysis, we determined whether groups had unequal variances by Bartlett’s test. Group averages with equal variances were compared to each other either by one-way analysis of variance (ANOVA) with Tukey post-test or by unpaired t-test as appropriate. Group averages with unequal variances were compared to each other by t-test with Welch’s correction. […] All values are expressed as mean ± SD or SE as indicated. We considered groups statistically different if p < 0.05 by ANOVA with Tukey posttest or t-test (two-tailed). Dose–response studies were also subjected to regression analysis using a sigmoidal curve fitting model: […]

[2] = test system: ERE-luciferase (BG1Luc4E2 cells); assay: ERE-luciferase induction in BG1Luc4E2 cells after cotreatment with 10^−11 M E2; format: cell-based, human; conditions: for Effect on E2-induced ERE-luciferase activity (cotreatment): compared with the maximal effect of E2 alone
Procedure: as §1
See “Material and Methods” for details. […] Error bars indicate SE.

[3] = test system: ERE-luciferase (MDA-MB-231 cells transfected with ER-α or BG1Luc4E2 cells); assay: ERE-luciferase induction by microsomal metabolites (rat liver microsome incubation products); conditions: female rat liver microsomes, complete NADPH generating system
Procedure: as §1

BG1Luc4E2 cells = conditions: 5–50 μM, alone or in combination with E2
[4] = 1 nM 3H-E2, 0.6 nM recombinant ER-α, 4°C overnight

Compound	EC50 [1]	Effect on E2-induced ERE-luciferase activity (cotreatment) [2]	Relative affinity (E2 IC50 ÷ test chemical IC50 × 100) (recombinant ER-α) [%]	EC50 ([1]; Homo sapiens, read-out: EC50) [µM]	IC50 (recombinant ER-α) [µM]	further results
Oc1ccc(Br)cc1Br [2,4-DBP, 2,4-dibromophenol]	No effect					IC50 (concentration yielding 50% displacement of 3H-E2 from receptor) (recombinant ER-α; [4]): No effect
Oc1cc(Br)c(Br)cc1Br [2,4,5-TBP, 2,4,5-tribromophenol]	No effect					IC50 (concentration yielding 50% displacement of 3H-E2 from receptor) (recombinant ER-α; [4]): No effect
Oc1c(Br)ccc(Oc2ccc(Br)cc2Br)c1Br [3-OH-BDE-47, 3-OH-2, 2′, 4, 4′-tetrabromodiphenyl]		able to potentiate the ERE-luciferase induction of E2	0.001			IC50 (recombinant ER-α; [4]): 52 µM
C[C@]12CC[C@@H]3c4ccc(O)cc4CC[C@H]3[C@@H]1CC[C@@H]2O [E2, 1, 3, 5(10)-estra-triene-3, 17β-diol, reference compound]				1.2e-06		Decrease of activity by microsomal incubation [3]: 78%; Test concentrations inducing ERE-luciferase [1]: above 10^−13 M
Oc1ccc(Oc2ccc(Br)cc2Br)c(Br)c1 [4′-OH-BDE-17, 4-OH-2, 2′, 4-tribromodiphenyl]		beyond the maximal effect of E2 alone	0.03	4.7	2.1	Relative effect (test chemical-to-E2 ratio of luciferase induction at EC50) [1]: 1.30 ratio; Relative estrogen potency (ratio of the E2 EC50 to EEP) [1]: 3.4 × 10^−7 ratio; Relative estrogenic potency compared with DE-71 [1]: approximately 10 fold; Emax ([1]; Homo sapiens, read-out: Estimated maximal effect higher than E2): 30%; Fold-induction at EC50 [1]: 4.3
Oc1cc(Br)ccc1Oc1ccc(Br)cc1Br [2′-OH-BDE-28, 2′-OH - 2,4, 4′ - tribromodiphenyl]		able to antagonize the effect of E2	0.001		60	Toxicity (protein content of culture wells at harvest) (BG1Luc4E2 cells): no toxicity; Concentration at which antagonism of E2 was observed [2]: 50 µM
Oc1cc(Br)cc(Br)c1Oc1ccc(Br)cc1Br [6-OH-BDE-47, 6-OH-2, 2′,4, 4′-tetra-bromodiphenyl]	No effect	able to antagonize the effect of E2	0.001		11	Toxicity (protein content of culture wells at harvest) (BG1Luc4E2 cells): no toxicity; Concentration at which antagonism of E2 was observed [2]: 5 µM
Oc1ccc(Oc2ccc(Br)cc2Br)c(Br)c1Br [4-OH-BDE-42, 4-HO-2, 2′,3, 4′-tetra-bromodiphenyl]		appeared to induce ERE-luciferase above the E2 maximum, but the effect was not statistically significant	0.005		14	
Oc1cc(Br)c(Oc2ccc(Br)cc2Br)cc1Br [4′-OH-BDE-49, 4′-OH-2, 2′,4, 5′-tetrabromodiphenyl]		beyond the maximal effect of E2 alone	0.03	13	2.3	Relative effect (test chemical-to-E2 ratio of luciferase induction at EC50) [1]: 0.36 ratio; Fold-induction at EC50 [1]: 1.2
